Results: PubChem BioAssay (NCI)
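Tested at 5 concentrations; 48 h exposure; 96-well plates; endpoints linearly interpolated, else capped at highest concentration. At the TGI there is no net growth.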

How the values were obtained:
Experiment in all cases: growth of human tumour cells (NCI), 48 h
LOX IMVI melanoma = tested on: LOX IMVI melanoma
SF-295 CNS = tested on: SF-295 CNS
IGROV1 ovarian = tested on: IGROV1 ovarian
NCI-H23 lung = tested on: NCI-H23 lung
MALME-3M melanoma = tested on: MALME-3M melanoma
TK-10 renal = tested on: TK-10 renal
UO-31 renal = tested on: UO-31 renal
HL-60(TB) leukemia = tested on: HL-60(TB) leukemia
A549 NSCLC = tested on: A549 NSCLC
HCT-116 colon = tested on: HCT-116 colon
U251 CNS = tested on: U251 CNS
KM12 colon = tested on: KM12 colon
SF-268 CNS = tested on: SF-268 CNS
SF-539 CNS = tested on: SF-539 CNS
DU-145 prostate = tested on: DU-145 prostate
MCF7 breast = tested on: MCF7 breast
MDA-MB-435 = tested on: MDA-MB-435
HS 578T breast = tested on: HS 578T breast
PC-3 prostate = tested on: PC-3 prostate
MDA-MB-231 breast = tested on: MDA-MB-231 breast

SMILES | TGI (LOX IMVI melanoma) [µM] | TGI (SF-295 CNS) [µM] | TGI (IGROV1 ovarian) [µM] | TGI (NCI-H23 lung) [µM] | TGI (MALME-3M melanoma) [µM] | TGI (TK-10 renal) [µM] | TGI (UO-31 renal) [µM] | TGI (HL-60(TB) leukemia) [µM] | TGI (A549 NSCLC) [µM] | TGI (HCT-116 colon) [µM] | TGI (U251 CNS) [µM] | TGI (KM12 colon) [µM] | TGI (SF-268 CNS) [µM] | TGI (SF-539 CNS) [µM] | TGI (DU-145 prostate) [µM] | TGI (MCF7 breast) [µM] | TGI (MDA-MB-435) [µM] | TGI (HS 578T breast) [µM] | TGI (PC-3 prostate) [µM] | TGI (MDA-MB-231 breast) [µM]
CCOc1cn(C2OC(CO)C(O)C2O)c(=O)[nH]c1=O (configuration not stated) | > 100 | > 100 | > 100 | > 100 | > 100 | > 100 | > 100 | > 100 | > 100 | > 100 | 43.7 | > 100 | > 100 |  |  |  |  |  |  | 
O=C1Cc2nc(CO)c(CO)c(CO)c2CO1 | > 100 | > 100 | > 100 | > 100 | > 100 | > 100 | > 100 | > 100 | > 100 | > 100 | > 100 | > 100 | > 100 | > 100 |  |  |  |  |  | 
COc1cc2c(c(O)c1OC)C(=O)[C@@H]1CCC(=O)N1C2c1ccccc1 (some centres not stated) | > 100 | > 100 | > 100 | > 100 | > 100 | > 100 | > 100 | > 100 | > 100 | > 100 | > 100 | > 100 | > 100 | > 100 | > 100 | > 100 | > 100 | > 100 | > 100 | 
CCOC(=O)C1=C(C)NC2=C(C(=O)N(c3ccccc3)C2c2ccccc2)C1c1ccccc1 (configuration not stated) | 34.4 |  | 40.8 | 33.7 | 33.7 | 45.2 | 39.1 | 81.2 | 44.2 | 31.4 | 29.3 | 33.7 | 33.7 | 33.1 |  |  |  |  |  | 
CSc1ccc2c(cc1=O)[C@@H](NC(=O)c1ccc(Cl)cc1)CCc1cc(O)c(O)c(O)c1-2 | 33.6 | > 100 | 50.8 | > 100 | > 100 | > 100 | > 100 | > 100 | > 100 | 32.1 | > 100 | > 100 | > 100 | > 100 |  |  |  |  |  | 
COC1(C)C(=O)N2C1N(C(=O)OC(C)(C)C)CC2(C)C (configuration not stated) | 53.1 | > 100 | > 100 | > 100 | > 100 | > 100 | > 100 | > 100 | > 100 | > 100 | > 100 | > 100 | > 100 | > 100 |  |  |  |  |  | 
COc1ccc(C2ON(c3ccccc3)CC=C2C)cc1 (configuration not stated) | > 100 | > 100 | > 100 | > 100 | > 100 | > 100 | > 100 | > 100 | > 100 | > 100 | > 100 | > 100 | > 100 | > 100 |  |  |  |  |  | 
CNC(=O)C1(C#N)C(c2ccccc2)C(C#N)(C(=O)NC)C1c1ccccc1 (configuration not stated) | > 100 | > 100 | > 100 | > 100 |  | > 100 | > 100 |  | > 100 | > 100 | > 100 | > 100 | > 100 | > 100 |  | > 100 | > 100 | > 100 | > 100 | 
Cc1ccc(S(=O)(=O)N2CCN(C=S)CC2)cc1 | > 100 |  | > 100 | > 100 | > 100 | > 100 | > 100 | > 100 | > 100 | > 100 | > 100 | > 100 | > 100 | > 100 |  |  |  |  |  | 
COc1ccc(N2C(=O)C3c4[nH]c5ccccc5c4C4CC(C)(C)CC(C)(C)C4C3C2=O)cc1 (configuration not stated) |  | 21.4 | 65.5 | 33.9 | 36.3 |  | > 100 | > 100 | 27.3 | 30.4 | 31.2 |  | 54 | 27.2 |  |  |  |  |  | 
CC(=O)O[C@H]1CCN2C(=O)C=CC(OCc3ccccc3)C12 (some centres not stated) | > 100 | > 100 | > 100 | > 100 | > 100 | > 100 | > 100 | > 100 | > 100 |  | > 100 | > 100 | > 100 | > 100 |  |  |  |  |  | 
COc1cc(CC2c3cc(OC)c(OC)cc3CCN2C)ccc1O (configuration not stated) |  | > 100 |  | > 100 | > 100 | > 100 | > 100 |  | > 100 | > 100 | > 100 | > 100 | > 100 | > 100 |  |  |  |  |  | 
CC(=O)Nc1ccc(-c2nnc(SCC(=O)Nc3cccc(Cl)c3)o2)cc1 | 26.8 | 33.6 | 32.5 | 23 | 26.8 | 33.9 | 76.9 | 60.4 | 33.1 | 25.5 | 23.2 | 30.8 | 37.8 | 34.8 |  |  |  |  |  | 
NS(=O)(=O)c1ccc(Nc2c3ccccc3nc3c(C(=O)N4CCN(CCO)CC4)cccc23)cc1 | > 100 | > 100 | > 100 | > 100 | > 100 | > 100 | > 100 | 65.5 | > 100 | > 100 | > 100 | > 100 | > 100 | > 100 |  |  |  |  |  | 
CC(=O)OCCOCNC(=S)N/N=C/c1cc([N+](=O)[O-])ccc1O | > 100 | > 100 | > 100 | > 100 | > 100 | > 100 | > 100 | > 100 | > 100 | > 100 | > 100 | > 100 | > 100 | > 100 |  |  |  |  |  | 
Cc1ccc(Cc2nn(C)c(=O)n2N)cc1 | > 100 | > 100 | > 100 | > 100 |  | > 100 | > 100 |  | > 100 | > 100 | > 100 | > 100 |  | > 100 | > 100 | > 100 | > 100 |  | > 100 | > 100
COc1cc2oc(-c3ccccc3)cc(=O)c2c(O)c1C | > 100 | > 100 | > 100 | > 100 | > 100 | > 100 | > 100 | > 100 | > 100 | > 100 | > 100 | > 100 | > 100 | > 100 |  |  |  |  |  | 
O=C(/C=C/c1ccccc1O)c1ccc([N+](=O)[O-])cc1 | 33.4 | 56.5 | 26.3 | 25.4 | > 100 | 77.2 | 33.2 | 56.9 | 48.9 | 29 | 28.5 | 40.4 | 66.9 | 29.2 |  |  |  |  |  | 
CCOC(=O)CC[C@H](NC(=O)N[C@H](C)c1ccccc1)C(=O)OCC | > 100 | > 100 | > 100 | > 100 |  | > 100 | > 100 | > 100 | > 100 | > 100 | > 100 | > 100 |  | 45.5 | > 100 | > 100 | 69.1 |  | > 100 | > 100
CC(=O)NC(Cc1ccccc1)NC(=O)O (configuration not stated) | > 100 | > 100 | > 100 | > 100 | > 100 | > 100 | > 100 | > 100 | > 100 | > 100 | > 100 | > 100 | > 100 | > 100 | > 100 | > 100 | > 100 |  | > 100 | > 100
CN/C=C(\C(=O)c1ccc(OC)c(OC)c1)c1ccc(OC)cc1 | 29.8 | > 100 | > 100 | > 100 |  | 37.9 | 48.6 | 32.3 | > 100 | 18.1 | 21.3 | 29.5 | 72.9 | 14.1 |  |  |  |  |  | 
CCOC(=O)Cc1nnc2n(-c3ccccc3)c(=O)c3ccccc3n12 | > 100 | > 100 | > 100 | > 100 | > 100 | > 100 | > 100 | > 100 | > 100 | > 100 | > 100 | > 100 | > 100 | > 100 | > 100 | > 100 | > 100 |  | > 100 | > 100
COC(=O)[C@@]1(C)C(=O)CC[C@@H]1C=O | > 100 | > 100 | > 100 | > 100 | > 100 | > 100 | > 100 | > 100 | > 100 | > 100 | > 100 | > 100 | > 100 | > 100 |  |  |  |  |  | 
COc1cccc(/C=C/C(=O)c2sc(C(N)=S)nc2C)c1O | 56.7 | > 100 | > 100 | > 100 | > 100 | > 100 | > 100 | > 100 | > 100 | > 92.5 | > 100 | > 100 | > 100 | 97 |  |  |  |  |  | 
COc1ccc(C(=O)c2c3cc(OC)c(OC)c(OC)c3cc[n+]2C)cc1 |  |  | > 100 | 66.5 | > 100 | > 100 | > 100 |  | 34.7 | > 100 | > 100 | > 100 | > 100 |  |  |  |  |  |  | 
